Experimental data as given in US10272124B2, “Use of helminthostachys, ugonins or flavone-based compounds for the treatment or prevention of metabolic diseases” (National Research Institute of Chinese Medicine, Ministry …, priority 2016, dated 2019).

tested on: Akt; assay: Akt kinase activity assay (GSK3-α phosphorylation, Western blotting); format: biochemical; details: not given
Procedure: Akt kinase activity was determined by commercial Akt assay kit according to the manufacturer's directions. Phosphorylation states of GSK3-α were determined by Western blotting, so as to evaluate the effect of various ugonins on Akt activity.

| SMILES | Akt activity |
| --- | --- |
| C=C1CCCC(C)(C)[C@H]1Cc1c(O)cc2oc(-c3ccc(O)c(O)c3)cc(=O)c2c1O [ugonin J, (R)-2-(3,4-dihydroxyphenyl)-6-((2,2-dimethyl-6-methylenecyclohexyl)methyl)-5,7-dihydroxy-4H-chromen-4-one] | promote Akt activity |

tested on: BRIN-BD11 cells; assay: Glucose stimulated insulin secretion (HTRF insulin assay); format: cell-based, rat; details: below the concentration of 20 μM; 16.7 mM glucose, 20 min
Procedure: The clonal rat pancreatic β-cell line (BRIN-BD11) was grown as a monolayer in culture dishes at 37° C. under 5% CO2/air with 90% humidity. Cells were maintained in RPMI 1640 medium containing 10% foetal bovine serum and 5% penicillin and streptomycin mixture.
BRIN-BD11 cells were plated on 24-well plates (0.5×10^5 cells/well) and incubated for 48 hours with media containing 5.6 mM glucose. Before performing acute insulin secretion test, cells were pre-incubated with 1.1 mM glucose in Krebs-Ringer Bicarbonate Buffer for 45 min at 37° C. Then, cells were challenged with vehicle (DMSO) or various ugonins in 16.7 mM glucose in Krebs-Ringer Bicarbonate Buffer for 20 min. The media were collected for insulin determination. Insulin concentrations were quantified by the Homogeneous Time-Resolved Fluorescence (HTRF) insulin assay and normalized to a million of total cell numbers.
Data were presented as mean±standard error of the mean. Statistical analyses were performed using GraphPad Prism (GraphPad, CA, USA). Single parameter-based comparisons were obtained from the unpaired student's t-test. P values less than 0.05 and 0.01 were considered to be significant.

| SMILES | insulin secretion of BRIN-BD11 cells |
| --- | --- |
| CC1Oc2cc3oc(-c4ccc(O)c(O)c4)cc(=O)c3c(O)c2C1(C)C (stereo not shown) [ugonin T, 7-(3,4-dihydroxyphenyl)-4-hydroxy-2,3,3-trimethyl-2,3-dihydro-5H-furo[3,2-g]chromen-5-one] | significantly enhance |
| C=C1CCCC(C)(C)[C@H]1Cc1c(OC)cc2oc(-c3ccc(O)c(O)c3)cc(=O)c2c1O [ugonin K, (R)-2-(3,4-dihydroxyphenyl)-6-((2,2-dimethyl-6-methylenecyclohexyl)methyl)-5-hydroxy-7-methoxy-4H-chromen-4-one] | significantly enhance |
| CC1Oc2cc(O)c3c(=O)c(O)c(-c4ccc(O)cc4)oc3c2C1(C)C (stereo not shown) [ugonin F, 3,5-dihydroxy-2-(4-hydroxyphenyl)-8,9,9-trimethyl-8,9-dihydro-4H-furo[2,3-h]chromen-4-one] | significantly enhance |
| CC1=CCCC(C)(C)C1Cc1c(O)c(O)cc2oc3c(=O)c4c(O)cc(O)cc4oc3c12 (stereo not shown) [ugonin M, 1,3,7,8-tetrahydroxy-6-((2,6,6-trimethylcyclohex-2-en-1-yl)methyl)-11H-benzofuro[3,2-b]chromen-11-one] | significantly enhance |
| C=C1CCCC(C)(C)[C@H]1Cc1c(O)cc2oc(-c3ccc(O)c(O)c3)cc(=O)c2c1O [ugonin J, (R)-2-(3,4-dihydroxyphenyl)-6-((2,2-dimethyl-6-methylenecyclohexyl)methyl)-5,7-dihydroxy-4H-chromen-4-one] | significantly enhance |
| COc1c(-c2ccc(O)cc2)oc2c3c(cc(O)c2c1=O)OC(C)C3(C)C (stereo not shown) [ugonin C, 5-hydroxy-2-(4-hydroxyphenyl)-3-methoxy-8,9,9-trimethyl-8,9-dihydro-4H-furo[2,3-h]chromen-4-one] | significantly enhance |
